Tests used:
Assay in all cases: Test E pre-/postemergence plant response
Format in all cases: in vivo
[1] = tested on: guineagrass (Panicum maximum); settings: scale 0 to 100
How it was run: (§1)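 Visual rating 0–100 vs untreated controls (0 = no effect, 100 = complete control) after 14–21 d greenhouse. Pre- and postemergence treatments; compound in non-phytotoxic solvent mix + surfactant. Post plants 2–18 cm, 1- to 4-leaf stage.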

[2] = tested on: common mallow (Malva sylvestris); settings: scale 0 to 100
How it was run: as §1

[3] = tested on: large crabgrass (Digitaria sanguinalis); settings: scale 0 to 100
How it was run: as §1

[4] = tested on: quackgrass (Elytrigia repens); settings: scale 0 to 100
How it was run: as §1

[5] = tested on: common purslane (Portulaca oleracea); settings: scale 0 to 100
How it was run: as §1

[6] = tested on: naked crabgrass (Digitaria nuda); settings: scale 0 to 100
How it was run: as §1

[7] = tested on: black mustard (Brassica nigra); settings: scale 0 to 100
How it was run: as §1

[8] = tested on: Italian ryegrass (Lolium multiflorum); settings: scale 0 to 100
How it was run: as §1

[9] = tested on: prickly sida (Sida spinosa); settings: scale 0 to 100
How it was run: as §1

[10] = tested on: kochia (Kochia scoparia); settings: Preemergence, scale 0 to 100
How it was run: as §1

[11] = tested on: barnyardgrass (Echinochloa crus-galli); settings: scale 0 to 100
How it was run: as §1

[12] = tested on: surinam grass (Brachiaria decumbens); settings: scale 0 to 100
How it was run: as §1

[13] = tested on: broadleaf signalgrass (Brachiaria platyphylla); settings: scale 0 to 100
How it was run: as §1

[14] = tested on: green foxtail (Setaria viridis); settings: scale 0 to 100
How it was run: as §1

[15] = tested on: purple nutsedge (Cyperus rotundus); settings: scale 0 to 100
How it was run: as §1

[16] = tested on: southern (S.) sandbur (Cenchrus echinatus); settings: scale 0 to 100
How it was run: as §1

[17] = tested on: pitted morningglory (Ipomoea lacunosa); settings: scale 0 to 100
How it was run: as §1

For `CCCc1cc(-c2ccc(Cl)cc2)nn1-c1c(O)cnn(C)c1=O` [Compound 43], the “Plant response rating, Guineagrass” value ([1]; 16 g ai/ha, Preemergence) was 95, the “Plant response rating, Guineagrass” value ([1]; 31 g ai/ha, Preemergence) was 100 and the “Plant response rating, Guineagrass” value ([1]; 62 g ai/ha, Preemergence) was 100. For the same compound, the “Plant response rating, Guineagrass” value ([1]; Postemergence, 8 g ai/ha) was 100, the “Plant response rating, Guineagrass” value ([1]; Postemergence, 16 g ai/ha) was 100 and the “Plant response rating, Guineagrass” value ([1]; Postemergence, 31 g ai/ha) was 100. The “Plant response rating, Guineagrass” value ([1]; Postemergence, 62 g ai/ha) was 100, the “Plant response rating, Mallow” value ([2]; 16 g ai/ha, Preemergence) was 0 and the “Plant response rating, Mallow” value ([2]; 31 g ai/ha, Preemergence) was 0. The “Plant response rating, Mallow” value ([2]; 62 g ai/ha, Preemergence) was 0, the “Plant response rating, Mallow” value ([2]; Postemergence, 8 g ai/ha) was 0 and the “Plant response rating, Mallow” value ([2]; Postemergence, 16 g ai/ha) was 0. The “Plant response rating, Mallow” value ([2]; Postemergence, 31 g ai/ha) was 0, the “Plant response rating, Mallow” value ([2]; Postemergence, 62 g ai/ha) was 0 and the “Plant response rating, Crabgrass, Large” value ([3]; 16 g ai/ha, Preemergence) was 0. The “Plant response rating, Crabgrass, Large” value ([3]; 31 g ai/ha, Preemergence) was 70, the “Plant response rating, Crabgrass, Large” value ([3]; 62 g ai/ha, Preemergence) was 80 and the “Plant response rating, Crabgrass, Large” value ([3]; Postemergence, 8 g ai/ha) was 30. The “Plant response rating, Crabgrass, Large” value ([3]; Postemergence, 16 g ai/ha) was 60, the “Plant response rating, Crabgrass, Large” value ([3]; Postemergence, 31 g ai/ha) was 80 and the “Plant response rating, Crabgrass, Large” value ([3]; Postemergence, 62 g ai/ha) was 80. For the same compound, the “Plant response rating, Quackgrass” value ([4]; 16 g ai/ha, Preemergence) was 70, the “Plant response rating, Quackgrass” value ([4]; 31 g ai/ha, Preemergence) was 80 and the “Plant response rating, Quackgrass” value ([4]; 62 g ai/ha, Preemergence) was 95. For the same compound, the “Plant response rating, Quackgrass” value ([4]; Postemergence, 8 g ai/ha) was 0, the “Plant response rating, Quackgrass” value ([4]; Postemergence, 16 g ai/ha) was 0 and the “Plant response rating, Quackgrass” value ([4]; Postemergence, 31 g ai/ha) was 20. The “Plant response rating, Quackgrass” value ([4]; Postemergence, 62 g ai/ha) was 75, the “Plant response rating, Purslane” value ([5]; 16 g ai/ha, Preemergence) was 0 and the “Plant response rating, Purslane” value ([5]; 31 g ai/ha, Preemergence) was 0. For the same compound, the “Plant response rating, Purslane” value ([5]; 62 g ai/ha, Preemergence) was 0, the “Plant response rating, Purslane” value ([5]; Postemergence, 8 g ai/ha) was 0 and the “Plant response rating, Purslane” value ([5]; Postemergence, 16 g ai/ha) was 0. For the same compound, the “Plant response rating, Purslane” value ([5]; Postemergence, 62 g ai/ha) was 0, the “Plant response rating, Crabgrass, Naked” value ([6]; 16 g ai/ha, Preemergence) was 35 and the “Plant response rating, Crabgrass, Naked” value ([6]; 31 g ai/ha, Preemergence) was 35. For the same compound, the “Plant response rating, Crabgrass, Naked” value ([6]; 62 g ai/ha, Preemergence) was 75, the “Plant response rating, Crabgrass, Naked” value ([6]; Postemergence, 8 g ai/ha) was 65 and the “Plant response rating, Crabgrass, Naked” value ([6]; Postemergence, 16 g ai/ha) was 65. The “Plant response rating, Crabgrass, Naked” value ([6]; Postemergence, 62 g ai/ha) was 100, the “Plant response rating, Mustard, Black” value ([7]; 16 g ai/ha, Preemergence) was 0 and the “Plant response rating, Mustard, Black” value ([7]; 31 g ai/ha, Preemergence) was 0. For the same compound, the “Plant response rating, Mustard, Black” value ([7]; 62 g ai/ha, Preemergence) was 0, the “Plant response rating, Mustard, Black” value ([7]; Postemergence, 8 g ai/ha) was 0 and the “Plant response rating, Mustard, Black” value ([7]; Postemergence, 16 g ai/ha) was 0. For the same compound, the “Plant response rating, Mustard, Black” value ([7]; Postemergence, 31 g ai/ha) was 0, the “Plant response rating, Mustard, Black” value ([7]; Postemergence, 62 g ai/ha) was 0 and the “Plant response rating, Ryegrass, Italian” value ([8]; 16 g ai/ha, Preemergence) was 90. The “Plant response rating, Ryegrass, Italian” value ([8]; 31 g ai/ha, Preemergence) was 90, the “Plant response rating, Ryegrass, Italian” value ([8]; 62 g ai/ha, Preemergence) was 90 and the “Plant response rating, Ryegrass, Italian” value ([8]; Postemergence, 8 g ai/ha) was 50. The “Plant response rating, Ryegrass, Italian” value ([8]; Postemergence, 16 g ai/ha) was 80, the “Plant response rating, Ryegrass, Italian” value ([8]; Postemergence, 31 g ai/ha) was 100 and the “Plant response rating, Ryegrass, Italian” value ([8]; Postemergence, 62 g ai/ha) was 100. The “Plant response rating, Prickly Sida” value ([9]; 16 g ai/ha, Preemergence) was 0, the “Plant response rating, Prickly Sida” value ([9]; 31 g ai/ha, Preemergence) was 0 and the “Plant response rating, Prickly Sida” value ([9]; 62 g ai/ha, Preemergence) was 0. For the same compound, the “Plant response rating, Prickly Sida” value ([9]; Postemergence, 8 g ai/ha) was 0, the “Plant response rating, Prickly Sida” value ([9]; Postemergence, 16 g ai/ha) was 0 and the “Plant response rating, Prickly Sida” value ([9]; Postemergence, 31 g ai/ha) was 0. For the same compound, the “Plant response rating, Prickly Sida” value ([9]; Postemergence, 62 g ai/ha) was 0, the “Plant response rating, Kochia” value ([10]; 16 g ai/ha) was 0 and the “Plant response rating, Kochia” value ([10]; 31 g ai/ha) was 0. For the same compound, the “Plant response rating, Kochia” value ([10]; 62 g ai/ha) was 0, the “Plant response rating, Barnyardgrass” value ([11]; 16 g ai/ha, Preemergence) was 50 and the “Plant response rating, Barnyardgrass” value ([11]; 31 g ai/ha, Preemergence) was 100. The “Plant response rating, Barnyardgrass” value ([11]; 62 g ai/ha, Preemergence) was 100, the “Plant response rating, Barnyardgrass” value ([11]; Postemergence, 8 g ai/ha) was 100 and the “Plant response rating, Barnyardgrass” value ([11]; Postemergence, 16 g ai/ha) was 100. For the same compound, the “Plant response rating, Barnyardgrass” value ([11]; Postemergence, 31 g ai/ha) was 100, the “Plant response rating, Barnyardgrass” value ([11]; Postemergence, 62 g ai/ha) was 100 and the “Plant response rating, Surinam Grass” value ([12]; 16 g ai/ha, Preemergence) was 50. For the same compound, the “Plant response rating, Surinam Grass” value ([12]; 31 g ai/ha, Preemergence) was 70, the “Plant response rating, Surinam Grass” value ([12]; 62 g ai/ha, Preemergence) was 100 and the “Plant response rating, Surinam Grass” value ([12]; Postemergence, 8 g ai/ha) was 95. For the same compound, the “Plant response rating, Surinam Grass” value ([12]; Postemergence, 16 g ai/ha) was 98, the “Plant response rating, Surinam Grass” value ([12]; Postemergence, 31 g ai/ha) was 98 and the “Plant response rating, Surinam Grass” value ([12]; Postemergence, 62 g ai/ha) was 98. For the same compound, the “Plant response rating, Signalgrass” value ([13]; 16 g ai/ha, Preemergence) was 60, the “Plant response rating, Signalgrass” value ([13]; 31 g ai/ha, Preemergence) was 100 and the “Plant response rating, Signalgrass” value ([13]; Postemergence, 8 g ai/ha) was 80. For the same compound, the “Plant response rating, Signalgrass” value ([13]; Postemergence, 16 g ai/ha) was 80, the “Plant response rating, Signalgrass” value ([13]; Postemergence, 31 g ai/ha) was 95 and the “Plant response rating, Signalgrass” value ([13]; Postemergence, 62 g ai/ha) was 98. The “Plant response rating, Foxtail, Green” value ([14]; 16 g ai/ha, Preemergence) was 25, the “Plant response rating, Foxtail, Green” value ([14]; 31 g ai/ha, Preemergence) was 85 and the “Plant response rating, Foxtail, Green” value ([14]; 62 g ai/ha, Preemergence) was 100. For the same compound, the “Plant response rating, Foxtail, Green” value ([14]; Postemergence, 8 g ai/ha) was 75, the “Plant response rating, Foxtail, Green” value ([14]; Postemergence, 16 g ai/ha) was 80 and the “Plant response rating, Foxtail, Green” value ([14]; Postemergence, 31 g ai/ha) was 80. For the same compound, the “Plant response rating, Foxtail, Green” value ([14]; Postemergence, 62 g ai/ha) was 98, the “Plant response rating, Nutsedge, Purple” value ([15]; 16 g ai/ha, Preemergence) was 0 and the “Plant response rating, Nutsedge, Purple” value ([15]; 31 g ai/ha, Preemergence) was 0. The “Plant response rating, Nutsedge, Purple” value ([15]; 62 g ai/ha, Preemergence) was 75, the “Plant response rating, Nutsedge, Purple” value ([15]; Postemergence, 8 g ai/ha) was 0 and the “Plant response rating, Nutsedge, Purple” value ([15]; Postemergence, 16 g ai/ha) was 0. The “Plant response rating, Nutsedge, Purple” value ([15]; Postemergence, 31 g ai/ha) was 0, the “Plant response rating, Nutsedge, Purple” value ([15]; Postemergence, 62 g ai/ha) was 0 and the “Plant response rating, Sandbur, S.” value ([16]; 16 g ai/ha, Preemergence) was 60. For the same compound, the “Plant response rating, Sandbur, S.” value ([16]; 31 g ai/ha, Preemergence) was 75, the “Plant response rating, Sandbur, S.” value ([16]; 62 g ai/ha, Preemergence) was 98 and the “Plant response rating, Sandbur, S.” value ([16]; Postemergence, 8 g ai/ha) was 80. The “Plant response rating, Sandbur, S.” value ([16]; Postemergence, 16 g ai/ha) was 95, the “Plant response rating, Sandbur, S.” value ([16]; Postemergence, 31 g ai/ha) was 98 and the “Plant response rating, Sandbur, S.” value ([16]; Postemergence, 62 g ai/ha) was 100. For the same compound, the “Plant response rating, Morningglory” value ([17]; 16 g ai/ha, Preemergence) was 0, the “Plant response rating, Morningglory” value ([17]; 31 g ai/ha, Preemergence) was 20 and the “Plant response rating, Morningglory” value ([17]; 62 g ai/ha, Preemergence) was 30. The “Plant response rating, Morningglory” value ([17]; Postemergence, 8 g ai/ha) was 0, the “Plant response rating, Morningglory” value ([17]; Postemergence, 16 g ai/ha) was 0 and the “Plant response rating, Morningglory” value ([17]; Postemergence, 31 g ai/ha) was 0. The “Plant response rating, Morningglory” value ([17]; Postemergence, 62 g ai/ha) was 0.
